Data on 4 compounds can be found in patent US5763673A, “Diarylheptanoide derivative and pharmaceutical composition comprising the same” (Kabushiki Kaisha Yakult Honsha, priority 1994, dated 1998).

Data set [1] has as its system TPA induced edematization in ears. Briefly: Ear edema induction test with TPA (12-O-tetradecanoylphorbol-13-acetate). Format: in vivo, ICR male mouse. Conditions: 0.5 mg/ear; for Rate of inhibition (%): 4 h after TPA, relative to rate of edematization of control group taken as 100; for Rate of edematization (%): both sides of right ear, 4 h after TPA (10 μl of 40 μg/ml), control group 161.1. The method, then: Four hours after the application of TPA, the center of right and left ears was cut out with a punch with a diameter of 6.5 mm to measure the weights. The rate of edematization of ears was calculated according to the following formula: [formula] The rate of edema enlargement inhibition was determined taking the rate of edematization of the control group to which no compound was applied as 100.

The test system of data set [2] is 5-lipoxygenase. To be noted: background, as reported; cited from earlier work.
The test system of the next data set is ears of mice. Briefly: Toxicity on application to ears of mice. Format: in vivo. To be noted: 5 mg/ear, 10 times the effective concentration.
In data set [3] the test system is 5-lipoxygenase. Briefly: 5-Lipoxygenase inhibiting activity (5-HETE production). Format: biochemical, rat. Conditions: RBL-1 5-lipoxygenase; 5-HETE by HPLC; values only in FIG. 1. As for the experimental part:
A sample of 5-lipoxygenase was prepared from basophilic leukemia cells of rat (RBL-1). First, the RBL-1 was cultured in an MEM medium (manufactured by Nissui Pharmaceutical Co.) containing 0.0292% of L-glutamine and 10% of FCS under conditions of 5% CO2 and at 37° C. for 3 days. After culture, the cells were collected by centrifuge (1000 rpm, 10 min., 4° C.) and washed twice with Dulbeccol's PBS (-) (manufactured by Nissui Pharmaceutical Co.) . The cells were suspended in 50 ml of Tris-HCl buffer (pH 7.4) at a concentration of 7.5×10^7 cells/ml. The cell suspension was ultrasonically treated in an ice bath and centrifuged (1300 rpm, 30 min., 4° C.) to obtain a 5- lipoxygenase sample as supernatant.
76 μl of 50 mM Tris-HCl buffer (pH 7.4) containing 2.56 mM of CaCl2 and 2.56 mM of ATP and 20 μl of 5-lipoxygenase sample prepared above were added to 2μl of a solution containing a prescribed amount of the diarylheptanoide derivative (1) prepared in Example 1 in DSMO. The mixture was incubated at 37° C. […] The amount of 5-HETE in the supernatant was measured by HPLC (column: Nova-pak 5C18; eluant: a 60:40 acetonitrile:0.05 M KH2 PO4 solution with 5 mM trihexyl bromide added; flow rate: 0.8 ml/min.; wavelength: 235 nm). The amount of 5-HETE produced was calculated from the peak area of the 5-HETE. […]

Regarding `O=C(C=Cc1ccc(O)c(O)c1)CCCCc1ccccc1` [(6), 1-(3,4-dihydroxyphenyl)-7-phenyl-1-heptene-3-one, reference compound], in data set [1], the “Rate of inhibition (%)” value turned out to be 84.5% and the “Rate of edematization (%)” value is recorded as 24.9%. Further, in the data set with 5-lipoxygenase [2], the “5-lipoxygenase inhibiting activity (in words)” value was “most strong 5-lipoxygenase inhibiting action”.
Turning to `COc1cc(C=CC(=O)CCCCc2ccccc2)cc(OC)c1O` [Compound (1), 1-(3,5-dimethoxy-4-hydroxyphenyl)-7-phenyl-1-heptene-3-one], in data set [1], the “effect compared with comparative compound (6) (in words)” value is listed as “stronger than that of the comparative compound”, the “effect for inhibiting TPA induced edematization in ears (in words)” value is “strong effect for inhibiting TPA induced edematization in ears”, the “Rate of inhibition (%)” value stood at 96.1% and the “Rate of edematization (%)” value amounted to 6.3%. Besides, in the data set with ears of mice, the “toxicity (in words)” value is on record as “No toxicity was exhibited”. The “5-lipoxygenase inhibiting effect (in words)” value in the data set with 5-lipoxygenase [3] was “strong 5-lipoxygenase inhibiting effect”.
Take `COc1cc(CCC(=O)CCCCc2ccccc2)ccc1O` [Yakuchinone-A]: the “5-lipoxygenase inhibiting activity (in words)” value in the data set with 5-lipoxygenase [2] was “exhibiting a 5-lipoxygenase inhibiting activity”.
Take `COc1cc(/C=C/C(=O)CCCCc2ccccc2)ccc1O` [Yakuchinone-B]: the “5-lipoxygenase inhibiting activity (in words)” value in the data set on 5-lipoxygenase [2] is “exhibiting a 5-lipoxygenase inhibiting activity”.
